Results taken from patent US6106872A, “Process for obtaining aroma components and aromas from their precursors of a glycosidic nature, and aroma components and aromas thereby obtained” (Gist-brocades NV, priority 1988, dated 2000).
“Also recorded” adds a separate entry of the source.

How the values were obtained:
[1] = Sequential enzymatic hydrolysis of HPLC fractions (peaks A and B), GC analysis; format: biochemical, Muscat de Frontignan variety grapes
Protocol: The benefits of high performance liquid chromatography were exploited for isolating some terpene glycosides. For this purpose, fractions were collected as they emerged from the chromatographic system (more especially on elution of the peaks A and B) during the separation of the constituents of the glycosidic extract. (FIG. 10 below). Fifteen successive injections of 20 μl each enabled sufficient material to be isolated for the enzymatic hydrolyses and the analyses by GC to be performed in order to identify the compounds in question.
The chromatographic system consists of the following components: a Vista 5500 chromatograph equipped with a variable wavelength UV/visible spectrophotometer (Varian Assoc., Sunnyvale, Calif., USA); a six-way injection valve (Valco) equipped with a 20-μl loop; a stainless steel column (220×4 mm I.D.) filled with Spheri-5 (Brownlee Labs., Santa Clara, Calif., USA) octadecyl grafted silica of small particle size (5 μm); as well as a precolumn (37×4 mm I.D.) packed with the same stationary phase.
The chromatography is carried out using a water/-acetonitrile aqueous-organic mobile phase (reversed-phase polarity chromatography) and an elution graduated according to an increase in the acetonitrile content from 30 to 40% (by volume) in the course of 10 minutes. The elution solvent is pumped at a flow rate of 1 ml/min. The detection is performed at 200 nm and 0.5 absorbance unit full-scale.
Furthermore, each fraction was subjected to the sequential action of α-arabinosidase and then β-glucosidase. At the end of each stage and according to the procedures described, the incubated medium was analysed by GC in order to test for sugars and glucosides on the one hand, and for terpenols on the other hand. Thus, the peaks A and B were identified, respectively, as neryl and geranyl α-L-arabinofuranosyl-β-D-glucopyranosides. The identity of the geranyl glycoside was verified, in addition, by co-injection of the glycosidic extract with the synthetic compound.

[2] = Enzymatic hydrolysis on natural media by commercial enzyme preparations; format: biochemical, Muscat d'Alexandrie variety grapes; details: Hemicellulase + Naringinase, 25° C., 86 hours
Protocol: The enzymatic hydrolysis of a glycosidic extract incorporated, on the one hand into a natural medium (must or dry wine), and on the other hand into a reference medium (buffer), by the action of commercial preparations containing the requisite three glycosidases, was studied.
A juice and a wine of a vine variety not containing terpenols and terpene glycosides, but enriched beforehand with a known amount of glycosidic extract of muscat, are treated with commercial enzyme preparations. The media, as well as controls, are incubated at 25° C. for 86 hours (see the experimental protocol plan below). They are then passed through a column of Amberlite XAD-2 according to the protocol applied for the production of the glycosidic extract, and the terpenols are assayed by GC.
(4) The glycosidic extract used is obtained by passing a must of Muscat d'Alexandrie variety grapes through Amberlite XAD-2. The amount of glycosidic extract (1 ml) added in the tests corresponds to that found in 50 ml of must of Muscat d'Alexandrie variety grapes.

[3] = Enzymatic hydrolysis of a glycosidic extract (TLC and GC monitoring); format: biochemical, Muscat de Frontignan variety grapes; details: for % of monoglucosides: Table 5, both enzymes together; for Terpene monoglucosides liberated by α-arabinosidase / Terpene monoglucosides liberated by α-rhamnosidase: Table 5, percentage of the total amount liberated by the two enzymes
Protocol: Thin-layer adsorption chromatography was carried out on pieces of aluminum foil covered with a thin layer (0.2 mm) of silica gel (5553 Silica gel 60 without a fluorescence indicator, Merck). An ethyl acetate/isopropanol/water (65:30:10 v/v/v) mixture was used as a migration solvent.
The sugars and the glycosides are visualized by means of the following mixture, prepared immediately before use: 0.2% napthoresorcinol in ethanol/concentrated sulphuric acid (19:1 v/v). The application of this visualizing agent is followed by drying the plates in the oven (105° C.) for 15 minutes. Apart from their migration distance, the various compounds are also distinguished by their color. The glycosides are purple-red, the arabinosides are bluish, rhamnose greenish pink, arabinose blue and glucose pink.
40 μl of glycosidic extract and 60 μl of a solution of Glc-pNP (internal standard) at a concentration of 50 mg/l in ethyl acetate are introduced into a suitable flask. The mixture is taken to dryness at 40° C. with a stream of nitrogen. 40 μl of the silylating reagent (Tri-sil, Pierce, Rockford, Ill., USA) are then introduced; the flask is sealed and maintained at 40° C. for 20 minutes. After rapid cooling, the silylated sample is then ready for analysis by GC.
The apparatus used consists of a Series 30C gas chromatograph, an "on-column" injector (injected volume 0.5 μl) and a flame ionization detector (Girdel, France). A thin film (0.20 μm) of an OV-1 (girdel) apolar silicone phase is grafted onto the inner wall of the capillary column ([…].). The oven temperature is programmed from 125 to 305° C. at the rate of 5° C./minute, then maintained at 305° C. for 15 minutes. Finally, the detector temperature is set at 300° C. and hydrogen is used as the carrier gas at a pressure of 120 kPa.
The monoterpene alcohols studied here are sufficiently volatile to be chromatographed as they are. To the pentane extract containing them, the internal standard, 4-nonanol (for synthesis, Merck, Darmstadt, FRG) is added in the proportion of 1 μl of a solution at a concentration of 2.89 mg/ml in pentane per 50 μl of medium. The mixture is then dried over sodium sulphate, filtered through glass wool and then concentrated to a volume in the region of 100 μl. For this purpose, the pentane is first removed using a conventional still, and then a Dufton type column of a size suited to the volume remaining to be concentrated.
The constituents of the concentrated extract are separated using a capillary column (25 m×0.32 mm I.D.) containing a CP wax 52 CB (Chrompack, Middelburg, Netherlands) polar phase. The grafted polyethylene glycol film was selected thick (1.28 μm) in order to permit the injection of large sample volumes, up to 4 μl. The analysis is performed using a Fractovap Series 2900 (Carlo Erba, Milan, Italy) chromatograph, equipped with a flame ionization detector maintained at 250° C. and an "on-column" injector. Hydrogen was used as the carrier gas at a pressure of 60 kPa, and the oven temperature was programmed as follows: isothermal at 70° C. for 5 minutes, followed by a rise to 195° C. at the rate of 2° C./minute and a plateau at 195° C. for 15 minutes.
The glycosidic extract was obtained by extraction of a must of Muscat de Frontignan variety grapes collected at maturity in the vines of the Station Experimentale de Pech Rouge (INRA Gruissan, France), followed by removal of the free terpenols and sugars.
The glycoside fraction was taken to dryness under vacuum and then taken up in 18 ml of water. The glycosidic extract used in the chromatographic and enzymatic experiments was thereby obtained.
The experimental protocols for the enzymatic hydrolysis on the glycosidic extract are collated in Table 3. […]

[4] = Enzymatic hydrolyses on synthetic substrates (TLC, pNP, GC); format: biochemical; details: from the synthetic glycosides
Source text: The enzymatic hydrolysis is followed by thin-layer chromatography (TLC) and by gas chromatography (GC).
In all the tests relating to the enzymatic hydrolysis of the synthetic substrates, the same glycosidase activity (0.15 nkat) is used for each of the enzymes (α-arabinosidase, α-rhamnosidase, β-glucosidase).

| SMILES | % of monoglucosides [3] [%] | Terpene monoglucosides liberated by α-arabinosidase [3] [%] | Terpene monoglucosides liberated by α-rhamnosidase [3] [%] | further results |
| --- | --- | --- | --- | --- |
| CC(C)=CCC/C(C)=C\CO[C@@H]1O[C@H](CO[C@@H]2O[C@@H](CO)[C@H](O)[C@H]2O)[C@@H](O)[C@H](O)[C@H]1O (single isomer, unassigned) [Peak A, neryl α-L-arabinofuranosyl-(1--> 6)-β-D-glucopyranoside] |  |  |  | Compounds appearing after action of α-arabinosidase [1]: arabinose; also recorded: Glc--Ner; Compounds appearing after action of α-arabinosidase and then β-glucosidase [1]: glucose; also recorded: nerol |
| CC(C)=CCC/C(C)=C/CO[C@@H]1O[C@H](CO[C@@H]2O[C@@H](CO)[C@H](O)[C@H]2O)[C@@H](O)[C@H](O)[C@H]1O (single isomer, unassigned) [Peak B, geranyl α-L-arabinofuranosyl-(1--> 6)-β-D-glucopyranoside] |  |  |  | Compounds appearing after action of α-arabinosidase [1]: arabinose; also recorded: Glc--Ger; Compounds appearing after action of α-arabinosidase and then β-glucosidase [1]: glucose; also recorded: geraniol |
| OCc1ccccc1 [Benzyl alcohol, benzyl alcohol] |  |  |  | Compounds liberated relative to the reference medium ([2]; MUST (pH 3.4, sugars 180 g/l)): 46%; Compounds liberated relative to the reference medium ([2]; WINE (dry white, pH 3.1)): 50% |
| CC(C)=CCC/C(C)=C/CO[C@@H]1O[C@H](CO)[C@@H](O)[C@H](O)[C@H]1O [Glc--Ger, geranyl β-D-glucopyranoside] | 48 | 39 | 9 |  |
| C=CC(C)(CCC=C(C)C)O[C@@H]1O[C@H](CO)[C@@H](O)[C@H](O)[C@H]1O (stereo partly drawn) [Glc--Lin, linalyl β-D-glucopyranoside] | 19 | 10 | 9 |  |
| CC(C)=CCC/C(C)=C\CO[C@@H]1O[C@H](CO)[C@@H](O)[C@H](O)[C@H]1O [Glc--Ner, neryl β-D-glucopyranoside] | 33 | 28 | 5 |  |
| C=CC(C)(O)CCC=C(C)C (stereo not drawn) [Linalol, linalool] |  |  |  | Compounds liberated relative to the reference medium ([2]; MUST (pH 3.4, sugars 180 g/l)): 9%; Compounds liberated relative to the reference medium ([2]; WINE (dry white, pH 3.1)): 14% |
| O=[N+]([O-])c1ccc(O)cc1 [pNP, p-nitrophenol] |  |  |  | liberation of the aglycones [4]: liberated only after the sequential action of both glycosidases |
